Results published in PubChem BioAssay AID1919007 (Molecular Pharmacology Branch, DTP, NCI, 2023).
Where “and” joins values, the source holds several entries; their conditions need not be identical. Identical values can stand only once.

Test system: A498 complex spheroids with HUVEC/MSC, growth
Experiment: Anticancer human tumor A498 cell line growth inhibition [AhR];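 note: seven day exposure starting three days after spheroid seeding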;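 for viability, T/C: luminescence signal used as a surrogate for viable cells; luminescence viability scaled so 100% equals DMSO vehicle wells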
Settings: for viability, T/C: stronger effect = lower value; active = viability on the fitted dose curve at most 10% of control; inactive = the rest
Method in brief: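 Spheroids combined tumor cells with HUVEC endothelial cells and human MSCs as stroma. AhR antagonists were paired with standard or investigational drugs, each dosed in half-log steps down from near clinical Cmax, or from 10 microM where Cmax was unknown.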

[1] = curve of first compound, second compound 0.1 µM
[2] = curve of first compound, second compound 0.316 µM
[3] = curve of first compound, second compound 1 µM
[4] = curve of first compound, second compound 3.16 µM
[5] = curve of first compound, second compound 10 µM
[6] = second compound 0.1 µM, first compound 0.0316 µM
[7] = second compound 0.1 µM, first compound 0.1 µM
[8] = second compound 0.1 µM, first compound 0.316 µM
[9] = second compound 0.1 µM, first compound 1 µM
[10] = second compound 0.1 µM, first compound 3.16 µM
[11] = second compound 0.1 µM, first compound 10 µM
[12] = second compound 0.316 µM, first compound 0.0316 µM
[13] = second compound 0.316 µM, first compound 0.1 µM
[14] = second compound 0.316 µM, first compound 0.316 µM
[15] = second compound 0.316 µM, first compound 1 µM
[16] = second compound 0.316 µM, first compound 3.16 µM
[17] = second compound 0.316 µM, first compound 10 µM
[18] = second compound 1 µM, first compound 0.0316 µM
[19] = second compound 1 µM, first compound 0.1 µM
[20] = second compound 1 µM, first compound 0.316 µM
[21] = second compound 1 µM, first compound 1 µM
[22] = second compound 1 µM, first compound 3.16 µM
[23] = second compound 1 µM, first compound 10 µM
[24] = second compound 3.16 µM, first compound 0.0316 µM
[25] = second compound 3.16 µM, first compound 0.1 µM
[26] = second compound 3.16 µM, first compound 0.316 µM
[27] = second compound 3.16 µM, first compound 1 µM
[28] = second compound 3.16 µM, first compound 3.16 µM
[29] = second compound 3.16 µM, first compound 10 µM
[30] = second compound 10 µM, first compound 0.0316 µM
[31] = second compound 10 µM, first compound 0.1 µM
[32] = second compound 10 µM, first compound 0.316 µM
[33] = second compound 10 µM, first compound 1 µM
[34] = second compound 10 µM, first compound 3.16 µM
[35] = second compound 10 µM, first compound 10 µM

O=C(C=Cc1cccc(S(=O)(=O)Nc2ccccc2)c1)NO
1870 nM and 3100 nM and 1180 nM: IC50 (curve of compound)
16.7% and 20.2% and 6.75%: viability, T/C (compound 10 µM)
inactive: viability, T/C (compound 0.0316 µM) 96.9% and 99.7% and 91.8% | viability, T/C (compound 0.1 µM) 97.1% and 90.4% and 87.2% | viability, T/C (compound 0.316 µM) 77.8% and 90.1% and 67.2% | viability, T/C (compound 1 µM) 56.2% and 65.4% and 52.6% | viability, T/C (compound 3.16 µM) 45.1% and 51.9% and 33.4%

Nc1ccccc1NC(=O)c1ccc(CNC(=O)OCc2cccnc2)cc1 + Cc1ccccc1N=Nc1ccc(NC(=O)c2ccnn2C)c(C)c1
1160 nM: IC50 [5]
1670 nM: IC50 [2]
1500 nM: IC50 [1]
1200 nM: IC50 [4]
1430 nM: IC50 [3]
inactive: viability, T/C [6] 101% | viability, T/C [7] 91.4% | viability, T/C [8] 82.5% | viability, T/C [9] 64.6% | viability, T/C [10] 26.8% | viability, T/C [12] 123% | viability, T/C [13] 92.6% | viability, T/C [14] 86.5% | viability, T/C [15] 72% | viability, T/C [16] 28.5% | viability, T/C [18] 103% | viability, T/C [19] 96.2% | viability, T/C [20] 82% | viability, T/C [21] 61.5% | viability, T/C [22] 27.3% | viability, T/C [24] 89.3% | viability, T/C [25] 91.6% | viability, T/C [26] 74.4% | viability, T/C [27] 54% | viability, T/C [28] 26.9% | viability, T/C [30] 84% | viability, T/C [31] 80.7% | viability, T/C [32] 67.8% | viability, T/C [33] 53.6% | viability, T/C [34] 29.6%
active: viability, T/C [11] 1.44% | viability, T/C [17] 1.77% | viability, T/C [23] 1.56% | viability, T/C [29] 1.8% | viability, T/C [35] 1.63%

CC(C)c1c(-c2ccccc2)nc2c(C#N)c[nH]n2c1=O + Cc1cncc(-c2nc(NCCc3c[nH]c4ccccc34)c3ncn(C(C)C)c3n2)c1
< 31.6 nM: IC50 [5]
> 10000 nM: IC50 [1] | IC50 [2] | IC50 [3] | IC50 [4]
inactive: viability, T/C [6] 89.4% | viability, T/C [7] 92.7% | viability, T/C [8] 98.5% | viability, T/C [9] 104% | viability, T/C [10] 100% | viability, T/C [11] 94.8% | viability, T/C [12] 103% | viability, T/C [13] 104% | viability, T/C [14] 95.6% | viability, T/C [15] 91% | viability, T/C [16] 96.9% | viability, T/C [17] 98.5% | viability, T/C [18] 92.6% | viability, T/C [19] 95.8% | viability, T/C [20] 95.2% | viability, T/C [21] 88.8% | viability, T/C [22] 91.6% | viability, T/C [23] 91.2% | viability, T/C [24] 50.7% | viability, T/C [25] 49.1% | viability, T/C [26] 52.8% | viability, T/C [27] 54.9% | viability, T/C [28] 49.2% | viability, T/C [29] 52.7%
active: viability, T/C [30] 3% | viability, T/C [31] 4.01% | viability, T/C [32] 4.28% | viability, T/C [33] 3.84% | viability, T/C [34] 3.64% | viability, T/C [35] 4.87%

O=C(C=Cn1cnc(-c2cc(C(F)(F)F)cc(C(F)(F)F)c2)n1)NNc1cnccn1 + Cc1cncc(-c2nc(NCCc3c[nH]c4ccccc34)c3ncn(C(C)C)c3n2)c1
active: viability, T/C (second compound 10 µM, first compound 0.00949 µM) 3.95% | viability, T/C (second compound 10 µM, first compound 0.03 µM) 5.26% | viability, T/C (second compound 10 µM, first compound 0.0949 µM) 7.65% | viability, T/C (second compound 10 µM, first compound 0.3 µM) 6.47% | viability, T/C (second compound 10 µM, first compound 0.949 µM) 8.27% | viability, T/C (second compound 10 µM, first compound 3 µM) 11.1%
inactive: viability, T/C (second compound 0.1 µM, first compound 0.00949 µM) 86.3% | viability, T/C (second compound 0.1 µM, first compound 0.03 µM) 73.7% | viability, T/C (second compound 0.1 µM, first compound 0.0949 µM) 46.5% | viability, T/C (second compound 0.1 µM, first compound 0.3 µM) 30.3% | viability, T/C (second compound 0.1 µM, first compound 0.949 µM) 25.3% | viability, T/C (second compound 0.1 µM, first compound 3 µM) 26.6% | viability, T/C (second compound 0.316 µM, first compound 0.00949 µM) 87.2% | viability, T/C (second compound 0.316 µM, first compound 0.03 µM) 81.1% | viability, T/C (second compound 0.316 µM, first compound 0.0949 µM) 51.5% | viability, T/C (second compound 0.316 µM, first compound 0.3 µM) 30.9% | viability, T/C (second compound 0.316 µM, first compound 0.949 µM) 30.8% | viability, T/C (second compound 0.316 µM, first compound 3 µM) 22.2% | viability, T/C (second compound 1 µM, first compound 0.00949 µM) 84.8% | viability, T/C (second compound 1 µM, first compound 0.03 µM) 73.2% | viability, T/C (second compound 1 µM, first compound 0.0949 µM) 45.6% | viability, T/C (second compound 1 µM, first compound 0.3 µM) 27.9% | viability, T/C (second compound 1 µM, first compound 0.949 µM) 25% | viability, T/C (second compound 1 µM, first compound 3 µM) 24.6% | viability, T/C (second compound 3.16 µM, first compound 0.00949 µM) 69.3% | viability, T/C (second compound 3.16 µM, first compound 0.03 µM) 67.6% | viability, T/C (second compound 3.16 µM, first compound 0.0949 µM) 43.9% | viability, T/C (second compound 3.16 µM, first compound 0.3 µM) 30.1% | viability, T/C (second compound 3.16 µM, first compound 0.949 µM) 24.2% | viability, T/C (second compound 3.16 µM, first compound 3 µM) 23.2%
105 nM: IC50 [2]
72.4 nM: IC50 [4]
81.5 nM: IC50 [1]
< 9.49 nM: IC50 [5]
78.2 nM: IC50 [3]

Nc1ncn(C2CC(O)C(CO)O2)c(=O)n1 (stereo unspecified) + Cc1cncc(-c2nc(NCCc3c[nH]c4ccccc34)c3ncn(C(C)C)c3n2)c1
> 1000 nM: IC50 [1] | IC50 [2] | IC50 [3] | IC50 [4]
< 3.16 nM: IC50 [5]
active: viability, T/C (second compound 10 µM, first compound 0.00316 µM) 4.02% | viability, T/C (second compound 10 µM, first compound 0.01 µM) 3.97% | viability, T/C [30] 6.07% | viability, T/C [31] 3.94% | viability, T/C [32] 4.34% | viability, T/C [33] 4.63%
inactive: viability, T/C (second compound 0.1 µM, first compound 0.00316 µM) 83.2% | viability, T/C (second compound 0.1 µM, first compound 0.01 µM) 93.2% | viability, T/C [6] 88.5% | viability, T/C [7] 85.4% | viability, T/C [8] 75% | viability, T/C [9] 70.1% | viability, T/C (second compound 0.316 µM, first compound 0.00316 µM) 90.3% | viability, T/C (second compound 0.316 µM, first compound 0.01 µM) 94.5% | viability, T/C [12] 92.5% | viability, T/C [13] 88.5% | viability, T/C [14] 83.2% | viability, T/C [15] 81.9% | viability, T/C (second compound 1 µM, first compound 0.00316 µM) 85.4% | viability, T/C (second compound 1 µM, first compound 0.01 µM) 86.4% | viability, T/C [18] 85% | viability, T/C [19] 79.8% | viability, T/C [20] 81% | viability, T/C [21] 76% | viability, T/C (second compound 3.16 µM, first compound 0.00316 µM) 61.5% | viability, T/C (second compound 3.16 µM, first compound 0.01 µM) 65.8% | viability, T/C [24] 71.1% | viability, T/C [25] 60.6% | viability, T/C [26] 62.8% | viability, T/C [27] 63.4%

CCc1c2c(nc3ccc(O)cc13)-c1cc3c(c(=O)n1C2)COC(=O)[C@]3(O)CC
51.1 nM and 109 nM and 21.9 nM: IC50 (curve of compound)
inactive: viability, T/C (compound 0.000949 µM) 87% and 101% and 90.7% | viability, T/C (compound 0.003 µM) 85.5% and 93.3% and 84.1% | viability, T/C (compound 0.00949 µM) 65.7% and 84% and 61.2% | viability, T/C (compound 0.03 µM) 58.1% and 70.1% and 45.5% | viability, T/C (compound 0.0949 µM) 42.9% and 49.1% and 37.1% | viability, T/C (compound 0.3 µM) 33.4% and 41.5% and 29.9%

COc1ccc([C@@H](O)c2cc(-c3ncnc4cc(N5CCOCC5)ccc34)c(F)cc2Cl)nn1
654 nM and 887 nM and 508 nM: IC50 (curve of compound)
12.3% and 7.92% and 9.02%: viability, T/C (compound 10 µM)
inactive: viability, T/C (compound 0.0316 µM) 96.5% and 95.1% and 98.9% | viability, T/C (compound 0.1 µM) 92% and 80.4% and 92.3% | viability, T/C (compound 0.316 µM) 64.8% and 60.7% and 62% | viability, T/C (compound 1 µM) 40.2% and 59.5% and 30.9% | viability, T/C (compound 3.16 µM) 23.1% and 19.5% and 17.6%
